Legend:
Test in all cases: combination Emax (second highest fraction inhibited in the dose matrix, 72 h); higher = more inhibition; extreme values may be limits of the assay
HT-144 (Melanoma) = test system: HT-144 (Melanoma)
In short: (§1)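 Cell lines in DMEM/F12 or RPMI with 10% FBS were plated in 1536-well plates, held 24 hours at 37°C, 5% CO2, then given two-drug dose matrices for 72 hours (DMSO typically 0.2%). Viability was read by CellTiter-Glo 2.0 luminescence and scaled as inhibition from 0 (vehicle wells) to 1 (blank wells). Combination Emax is the second-highest inhibition in the matrix; Bliss excess is observed combination effect minus expected EA + EB − EA·EB, EA and EB being single-agent effects.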

[1] = test system: C2BBe1 (Colorectal Carcinoma)
In short: as §1

[2] = test system: GRANTA-519 (B-Cell Non-Hodgkin's Lymphoma)
In short: as §1

DK-MG (Glioblastoma) = test system: DK-MG (Glioblastoma)
In short: as §1

[3] = test system: TK (B-Cell Non-Hodgkin's Lymphoma)
In short: as §1

[4] = test system: NCI-H1975 (Lung Adenocarcinoma)
In short: as §1

[5] = test system: HT-1197 (Bladder Carcinoma)
In short: as §1

[6] = test system: NCI-H1435 (Non-Small Cell Lung Carcinoma)
In short: as §1

GCIY (Gastric Carcinoma) = test system: GCIY (Gastric Carcinoma)
In short: as §1

[7] = test system: NCI-H1944 (Lung Adenocarcinoma)
In short: as §1

[8] = test system: JURL-MK1 (Chronic Myelogenous Leukemia)
In short: as §1

[9] = test system: RPMI-8402 (T-Lymphoblastic Leukemia)
In short: as §1

SK-MEL-24 (Melanoma) = test system: SK-MEL-24 (Melanoma)
In short: as §1

[10] = test system: SUP-HD1 (Hodgkin's Lymphoma)
In short: as §1

[11] = test system: BT-474 (Breast Carcinoma)
In short: as §1

[12] = test system: SCC90 (Head and Neck Carcinoma)
In short: as §1

[13] = test system: COR-L105 (Lung Adenocarcinoma)
In short: as §1

SK-N-DZ (Neuroblastoma) = test system: SK-N-DZ (Neuroblastoma)
In short: as §1

[14] = test system: BC-1 (B-Cell Non-Hodgkin's Lymphoma)
In short: as §1

[15] = test system: TOV-21G (Ovarian Carcinoma)
In short: as §1

SMILES	combination Emax (HT-144 (Melanoma))	combination Emax [1]	combination Emax [2]	combination Emax (DK-MG (Glioblastoma))	combination Emax [3]	combination Emax [4]	combination Emax [5]	combination Emax [6]	combination Emax (GCIY (Gastric Carcinoma))	combination Emax [7]	combination Emax [8]	combination Emax [9]	combination Emax (SK-MEL-24 (Melanoma))	combination Emax [10]	combination Emax [11]	combination Emax [12]	combination Emax [13]	combination Emax (SK-N-DZ (Neuroblastoma))	combination Emax [14]	combination Emax [15]
Cc1c2c(nn1C)CSCc1cc(n(C)n1)CSc1cc(c3ccccc3c1)OCCCc1c(C(=O)O)n(C)c3c-2c(Cl)ccc13 [AZD5991] + CC1(C)CCC(CN2CCN(c3ccc(C(=O)NS(=O)(=O)c4ccc(NCC5CCOCC5)c([N+](=O)[O-])c4)c(Oc4cnc5[nH]ccc5c4)c3)CC2)=C(c2ccc(Cl)cc2)C1 [Venetoclax] (first compound max 1 µM, 7x7, partner max 1 µM)	0.955	0.23	0.472	0.613	1	0.378	0.148	0.206	0.343	0.214	0.695	0.932	0.336	0.959	0.351	0.934	0.181	0.479	1	0.209
Cc1c2c(nn1C)CSCc1cc(n(C)n1)CSc1cc(c3ccccc3c1)OCCCc1c(C(=O)O)n(C)c3c-2c(Cl)ccc13 [AZD5991] + CCN(CCO)CCCOc1ccc2c(Nc3cc(CC(=O)Nc4cccc(F)c4)[nH]n3)ncnc2c1 [AZD2811] (first compound max 1 µM, 7x7, partner max 1 µM)	0.927	0.277	0.464	0.839	0.289	0.485	0.2	0.313	0.449	0.35	0.901	1	0.362	0.787	0.442	0.908	0.262	0.293	1	0.4
Cc1c2c(nn1C)CSCc1cc(n(C)n1)CSc1cc(c3ccccc3c1)OCCCc1c(C(=O)O)n(C)c3c-2c(Cl)ccc13 [AZD5991] + CN(C)CCCOc1ccc(-c2ccc3ncc4c(c3c2)n(C2CCOCC2)c(=O)n4C)cn1 [AZD0156] (first compound max 1 µM, 7x7, partner max 1 µM)	0.87	0.288	0.209	0.754	0.313	0.599	0.217	0.233	0.465	0.259	0.734	0.795	0.232	0.617	0.306	0.904	0.258	0.265	1	0.161
Cc1c2c(nn1C)CSCc1cc(n(C)n1)CSc1cc(c3ccccc3c1)OCCCc1c(C(=O)O)n(C)c3c-2c(Cl)ccc13 [AZD5991] + C[C@@H]1COCCN1C2=NC(=NC(=C2)C3(CC3)[S@](=N)(=O)C)C4=C5C=CNC5=NC=C4 [AZD6738] (first compound max 1 µM, 7x7, partner max 10 µM)	0.969	0.452	0.906	0.707	0.895	0.664	0.466	0.217	0.808	0.928	1	0.999	0.549	0.891	0.334	0.928	0.511	0.931	1	0.798
Cc1c2c(nn1C)CSCc1cc(n(C)n1)CSc1cc(c3ccccc3c1)OCCCc1c(C(=O)O)n(C)c3c-2c(Cl)ccc13 [AZD5991] + C[C@@H](Nc1cc(F)cc(F)c1)c1cc(C(=O)N(C)C)cc2c(=O)cc(N3CCOCC3)oc12 [AZD8186] (first compound max 1 µM, 7x7, partner max 3 µM)	0.901	0.335	0.0698	0.849	0.112	0.431	0.252	0.276	0.565	0.282	0.629	0.888	0.388	0.659	0.594	0.903	0.238	0.232	1	0.253
Cc1c2c(nn1C)CSCc1cc(n(C)n1)CSc1cc(c3ccccc3c1)OCCCc1c(C(=O)O)n(C)c3c-2c(Cl)ccc13 [AZD5991] + Cn1cnc2c(F)c(Nc3ccc(Br)cc3Cl)c(C(=O)NOCCO)cc21 [Selumetinib] (first compound max 1 µM, 7x7, partner max 3 µM)	1	0.425	0.106	0.689	0.114	0.816	0.321	0.26	0.465	0.304	0.952	0.692	0.705	0.593	0.246	0.99	0.463	0.252	1	0.335
C[C@@H]1COCCN1c1cc(C2([S@](C)(=N)=O)CC2)nc(-c2ccnc3[nH]ccc23)n1 [AZD6738] + O=C(c1cc(Cc2n[nH]c(=O)c3ccccc23)ccc1F)N1CCN(C(=O)C2CC2)CC1 [Olaparib] (first compound max 10 µM, 7x7, partner max 10 µM)	0.859	0.331	0.754	0.316	0.878	0.354	0.393	0.212	0.811	0.745	0.996	1	0.551	0.725	0.218	0.48	0.581	0.915	0.939	0.538
NC1(C(=O)N[C@@H](CCO)c2ccc(Cl)cc2)CCN(c2ncnc3[nH]ccc23)CC1 [Capivasertib] + CC(=O)c1c(C)c2cnc(Nc3ccc(N4CCNCC4)cn3)nc2n(C2CCCC2)c1=O [Palbociclib] (first compound max 10 µM, 7x7, partner max 10 µM)	0.809	0.314	0.227	0.523	0.0563	0.638	0.551	0.244	0.631	0.798	1	0.947	0.654	0.569	0.332	0.965	0.362	0.618	0.928	0.754
NC1(C(=O)N[C@@H](CCO)c2ccc(Cl)cc2)CCN(c2ncnc3[nH]ccc23)CC1 [Capivasertib] + CC(C)n1c(=O)n(C)c2cnc3cc(F)c(-c4ccc(OCCCN5CCCCC5)nc4)cc3c21 [AZD1390] (first compound max 10 µM, 7x7, partner max 0.3 µM)	0.606	0.32	0.196	0.454	0.162	0.604	0.391	0.198	0.397	0.429	0.366	0.623	0.541	0.473	0.299	0.825	0.362	0.218	0.761	0.723
NC1(C(=O)N[C@@H](CCO)c2ccc(Cl)cc2)CCN(c2ncnc3[nH]ccc23)CC1 [Capivasertib] + CCN(CCO)CCCOc1ccc2c(Nc3cc(CC(=O)Nc4cccc(F)c4)[nH]n3)ncnc2c1 [AZD2811] (first compound max 10 µM, 7x7, partner max 1 µM)	0.764	0.301	0.597	0.484	0.231	0.611	0.439	0.248	0.504	0.628	0.596	0.939	0.626	0.657	0.348	0.867	0.377	0.619	0.872	0.794
NC1(C(=O)N[C@@H](CCO)c2ccc(Cl)cc2)CCN(c2ncnc3[nH]ccc23)CC1 [Capivasertib] + COc1nnc2ccc(N3CCC(c4ccc(OCCN5CCN(C)C(=O)[C@H]5C)cc4)CC3)nn12 [AZD5153] (first compound max 10 µM, 7x7, partner max 1 µM)	0.855	0.405	0.317	0.611	0.387	0.652	0.759	0.248	0.735	0.842	0.993	0.991	0.885	0.857	0.416	0.986	0.381	0.646	0.977	0.892
NC1(C(=O)N[C@@H](CCO)c2ccc(Cl)cc2)CCN(c2ncnc3[nH]ccc23)CC1 [Capivasertib] + C[C@@H]1COCCN1C2=NC(=NC(=C2)C3(CC3)[S@](=N)(=O)C)C4=C5C=CNC5=NC=C4 [AZD6738] (first compound max 10 µM, 7x7, partner max 10 µM)	0.88	0.445	0.892	0.494	0.871	0.669	0.491	0.26	0.751	0.974	1	0.997	0.688	0.762	0.406	0.804	0.501	0.983	0.94	0.851
